Data published in patent publication EP0419308A2, “Use of glutamic acid or gum arabic as anti-complement agent” (Chevance, Léon Georges, priority 1989, dated 1991).

Test system: complément
Test: Anti-complement activity: inhibition of complement in fresh serum (technique of Chevance & Etievant / Rapp & Borsos)
Assay type: biochemical
Details: fresh serum diluted 1/40, 37°C, 45 minutes
From the text: L'activité anti-complément des substances visées par l'invention peut être mise en évidence suivant la technique décrite dans l'article de L-G-CHEVANCE et M. ETIEVANT "Etude d'un peptide (sel de magnésium de l' acide N-Acétyl (α-β)- Aspartyl-glutamique) mise en évidence de la protection contre les destructions cellulaires locales provoquées par l'activation in situ du complément" (J. Pharmacol. Paris 1986 n° 4, 676-685), ainsi que dans la parution de J. RAPP et T. BORSOS "Molecular basis of complement action" Appleton Century Crofts publ. 1970.
Après titrage du complément, on incube à 37°C pendant 45 minutes des prélèvements aliquots de 40 µl de sérum frais dilué au 1/40e, mélangés chacun respectivement à 40 µl de solutions aqueuses de concentrations croissantes de chaque substance analysée : acide L-glutamique, glutamate de sodium, gomme arabique et d'un mélange, à concentrations égales de gomme arabique et de glutamate de sodium.

SMILES	% inhibition (Concentration 0,5 %)	% inhibition (Concentration 0,25 %)	% inhibition (Concentration 1 %)	% inhibition (Concentration 0,062 %)	% inhibition (Concentration 0,125 %)	% inhibition (Concentration 0,05 %)	% inhibition (Concentration 1,5 %)	% inhibition (Concentration 2 %)
N[C@@H](CCC(=O)O)C(=O)O [Glutamate de sodium, L-glutamate de sodium]	0,175%	0,112%	0,216%	0,101%	0,116%	–	–	–
N[C@@H](CCC(=O)O)C(=O)O [Acide glutamique, acide L-glutamique]	0,092%	0,000%	0,077%	–	–	0,033%	0,369%	0,661%
